# Test results reported in US9403841B2, “Phragamalin limonoids for the treatment of sexual dysfunction” (DICOTYLEDON AB, priority 2012, dated 2016).
# Key:
# male mice [1] = test: Sexual behavior test: number of mounts of male mice on sexually receptive female mice during one hour; format: in vivo
# From the text: A “sexually enhancing effect” is defined herein as the effect being observable as an at least 50% increase, more preferably at least 75% increase, in the number of mounts of sexually naive male mice onto sexually receptive female mice (both preferably being of 8 to 10 weeks of age), after a compound has been administered (orally or sub-cutaneously) to the male mice, the male mice are thereafter, each one separately, being introduced to a sexually receptive female mouse; the observed number of mounts being compared with the number of mounts for control male mice (i.e. control mice being male mice of the same age and strain as the treated ones, but which were not administered the compound but otherwise handled in the same way as the treated mice). The observation period shall be 1 h. It is further required that the number of male mice in each one of the treated and non-treated groups amount to at least three, more preferably to at least four, even more preferably to at least five, and most preferably to at least six in each group for the test to be valid; the average number of mounts for the non treated (average_mount_control) and treated (average_mount_treated) during the 1 h observation period are then calculated and the percent increase (Effect) is then being computed as:
# Mice of 9 weeks age weighing 30±2 g were used throughout the study. They were all sexually unskilled. At 4 weeks of age they had been separated from their parents and males and females had been placed in separated cages. The mice were fed with pellets enriched with proteins and lipids.
# Prior to the tests, male and female mice received specific treatments, as follows: […]
# At 3.00 pm, a female mouse was introduced into each cage hosting a male mouse. The number of mounts of the male mouse, defined as a tentative of lateral or dorsal mounting on the female mouse with or without penis intromission, was then counted during a one-hour observation period and used as a simple measure of sexual behavior activity.
# male mice [2] = details: see WO 2008/145996; cited from earlier work
structure (smiles),measurement,setting,value
COC(=O)CC1C2(C)CC34OC5(C)OC67C(CC(=O)OC6C3(O)C2OC(C)=O)C(C)(C(OC(=O)C(F)(F)F)c2ccoc2)CCC7(O5)C14C (stereo not shown) [GL-1203],dose at which a clear and significant increase in the mounting frequency was seen (only at this dose),"male mice [1]; subcutaneous in olive oil for three consecutive days, doses tested 0.04, 0.4, 4 mg/kg",4 mg/kg
COC(=O)CC1C2(C)CC34OC5(C)OC67C(CC(=O)OC6C3(OC(=O)C(C)C)C2OC(=O)C(C)C)C(C)(C(=O)c2ccoc2)CCC7(O5)C14C (stereo not shown) [Compound R306],potency to induce a sexual enhancing effect (comparison),male mice [2],more potent than R310
COC(=O)CC1C2(C)CC34OC5(C)OC67C(CC(=O)OC6C3(O)C2OC(=O)C(C)C)C(C)(C(=O)c2ccoc2)CCC7(O5)C14C (stereo not shown) [SAE5],dose at which clear and significant increases in number of mounts were seen already,"male mice [1]; oral in olive oil for three consecutive days, doses tested 0.004-4 mg/kg",0.04 mg/kg
same,maximum number of mounts over the one hour observation period (average),"male mice [1]; oral, 4 mg/kg for three consecutive days, D-4",37 mounts
